Drawing on patent US7521442B2, “Cyclopropyl fused indolobenzazepine HCV NS5B inhibitors” (Bristol-Myers Squibb Company, priority 2006, dated 2009), this text covers IC50 and EC50 for twelve compounds.

Read-outs that look alike come from different tables or passages of the source.

Test [1] deals with T1, HCV NS5B RdRp genotype 1b (Hepatitis C virus genotype 1b, UniProt Q9WMX2).
T1 construct: The protein was expressed with an 18 amino acid C-terminal truncation to enhance the solubility; made in house; host or cells: E. coli BL21(DE3), pET21a
Kind of test: Modified HCV NS5B RdRp enzyme assay (preincubation protocol). The format is biochemical. How it is done:
HCV NS5B RdRp cloning, expression, and purification. The cDNA encoding the NS5B protein of HCV, genotype 1b, was cloned into the pET21a expression vector. The protein was expressed with an 18 amino acid C-terminal truncation to enhance the solubility. The E. coli competent cell line BL21(DE3) was used for expression of the protein. Cultures were grown at 37° C. for ˜4 hours until the cultures reached an optical density of 2.0 at 600 nm. The cultures were cooled to 20° C. and induced with 1 mM IPTG. Fresh ampicillin was added to a final concentration of 50 μg/ml and the cells were grown overnight at 20° C.
Cell pellets (3 L) were lysed for purification to yield 15-24 mgs of purified NS5B. The lysis buffer consisted of 20 mM Tris-HCl, pH 7.4, 500 mM NaCl, 0.5% triton X-100, 1 mM DTT, 1 mM EDTA, 20% glycerol, 0.5 mg/ml lysozyme, 10 mM MgCl2, 15 μg/ml deoxyribonuclease I, and Complete TM protease inhibitor tablets (Roche). After addition of the lysis buffer, frozen cell pellets were resuspended using a tissue homogenizer. To reduce the viscosity of the sample, aliquots of the lysate were sonicated on ice using a microtip attached to a Branson sonicator. The sonicated lysate was centrifuged at 100,000×g for 1 hr at 4° C. and filtered through a 0.2 μm filter unit (Corning).
The protein was purified using three sequential chromatography steps: Heparin sepharose CL-6B, polyU sepharose 4B, and Hitrap SP sepharose (Pharmacia). The chromatography buffers were identical to the lysis buffer but contained no lysozyme, deoxyribonuclease I, MgCl2 or protease inhibitor and the NaCl concentration of the buffer was adjusted according to the requirements for charging the protein onto the column. Each column was eluted with a NaCl gradient which varied in length from 5-50 column volumes depending on the column type. After the final chromatography step, the resulting purity of the enzyme is >90% based on SDS-PAGE analysis. The enzyme was aliquoted and stored at −80° C.
Standard HCV NS5B RdRp enzyme assay. HCV RdRp genotype 1b assays were run in a final volume of 60 μl in 96 well plates (Costar 3912). The assay buffer is composed of 20 mM Hepes, pH 7.5, 2.5 mM KCl, 2.5 mM MgCl2, 1 mM DTT, 1.6 U RNAse inhibitor (Promega N2515), 0.1 mg/ml BSA (Promega R3961), and 2% glycerol. All compounds were serially diluted (3-fold) in DMSO and diluted further in water such that the final concentration of DMSO in the assay was 2%. HCV RdRp genotype 1b enzyme was used at a final concentration of 28 nM. A polyA template was used at 6 nM, and a biotinylated oligo-dT12 primer was used at 180 nM final concentration. Template was obtained commercially (Amersham 27-4110). Biotinylated primer was prepared by Sigma Genosys. 3H-UTP was used at 0.6 μCi (0.29 μM total UTP). Reactions were initiated by the addition of enzyme, incubated at 30° C. for 60 min, and stopped by adding 25 μl of 50 mM EDTA containing SPA beads (4 μg/μl, Amersham RPNQ 0007). Plates were read on a Packard Top Count NXT after >1 hr incubation at room temperature.
Modified HCV NS5B RdRp enzyme assay. A modified enzyme assay was performed essentially as described for the standard enzyme assay except for the following: The biotinylated oligo dT12 primer was precaptured on streptavidin-coated SPA beads by mixing primer and beads in assay buffer and incubating at room temperature for one hour. Unbound primer was removed after centrifugation. The primer-bound beads were resuspended in 20 mM Hepes buffer, pH 7.5 and used in the assay at final concentrations of 20 nM primer and 0.67 μg/μl beads. Order of addition in the assay: enzyme (14 nM) was added to diluted compound followed by the addition of a mixture of template (0.2 nM), 3H-UTP (0.6 μCi, 0.29 μM), and primer-bound beads, to initiate the reaction; concentrations given are final. Reactions were allowed to proceed for 4 hours at 30° C.
IC50 values for compounds were determined using seven different [I]. […]

For a further test, the system named is HCV replicon cells. Kind of test: HCV replicon FRET assay. It counts as cell-based. The text has this: FRET Assay Preparation. To perform the HCV FRET screening assay, 96-well cell culture plates were used. The FRET peptide (Anaspec, Inc.) (Taliani et al., Anal. Biochem. 1996, 240, 60-67) contains a fluorescence donor, EDANS, near one end of the peptide and an acceptor, DABCYL, near the other end. The fluorescence of the peptide is quenched by […] resonance energy transfer (RET) between the donor and the acceptor, but as the NS3 protease cleaves the peptide the products are released from RET quenching and the fluorescence of the donor becomes apparent. The assay reagent was made as follows: 5× cell Luciferase cell culture lysis reagent from Promega (#E153A) diluted to 1× with dH2O, NaCl added to 150 mM final, the FRET peptide diluted to 20 uM final from a 2 mM stock.
To prepare plates, HCV replicon cells, with or without a Renilla luciferase reporter gene, were trypsinized and placed into each well of a 96-well plate with titrated test compounds added in columns 3 through 12; columns 1 and 2 contained a control compound (HCV protease inhibitor), and the bottom row contained cells without compound. The plates were then placed in a CO2 incubator at 37° C.
Assays. Subsequent to addition of the test compounds described above (FRET Assay Preparation), at various times the plate was removed and Alamar blue solution (Trek Diagnostics, #00-100) was added per well as a measure of cellular toxicity. After reading in a Cytoflour 4000 instrument (PE Biosystems), plates were rinsed with PBS and then used for FRET assay by the addition of 30 ul of the FRET peptide assay reagent described above (FRET Assay Preparation) per well. The plate was then placed into the Cytoflour 4000 instrument which had been set to 340 excite/490 emission, automatic mode for 20 cycles and the plate read in a kinetic mode. Typically, the signal to noise using an endpoint analysis after the reads was at least three-fold. Alternatively, after Alamar blue reading, plates were rinsed with PBS, 50 ul of DMEM (high glucose) without phenol red was added and plates were then used for luciferase assay using the Promega Dual-Glo Luciferase Assay System.
Compound analysis was determined by quantification of the relative HCV replicon inhibition and the relative cytotoxicity values. To calculate cytoxicity values, the average Alamar Blue fluorescence signals from the control wells were set as 100% non-toxic. The individual signals in each of the compound test wells were then divided by the average control signal and multiplied by 100% to determine […]. To calculate the HCV replicon inhibition values, an average background value was obtained from the two wells containing the highest amount of HCV protease inhibitor at the end of the assay period. These numbers were similar to those obtained from naive Huh-7 cells.
The background numbers were then subtracted from the average signal obtained from the control wells and this number was used as 100% activity. The individual signals in each of the compound test wells were then divided by the averaged control values after background subtraction and multiplied by 100% to determine percent activity. EC50 values for a protease inhibitor titration were calculated as the concentration which caused a 50% reduction in FRET or luciferase activity. The two numbers generated for the compound plate, percent cytoxicity and percent activity were used to determine compounds of interest for further analysis.
For orientation: Replicon systems follow genome replication, usually without infectious particles.

T1 sequence (Q9WMX2 2420-2992): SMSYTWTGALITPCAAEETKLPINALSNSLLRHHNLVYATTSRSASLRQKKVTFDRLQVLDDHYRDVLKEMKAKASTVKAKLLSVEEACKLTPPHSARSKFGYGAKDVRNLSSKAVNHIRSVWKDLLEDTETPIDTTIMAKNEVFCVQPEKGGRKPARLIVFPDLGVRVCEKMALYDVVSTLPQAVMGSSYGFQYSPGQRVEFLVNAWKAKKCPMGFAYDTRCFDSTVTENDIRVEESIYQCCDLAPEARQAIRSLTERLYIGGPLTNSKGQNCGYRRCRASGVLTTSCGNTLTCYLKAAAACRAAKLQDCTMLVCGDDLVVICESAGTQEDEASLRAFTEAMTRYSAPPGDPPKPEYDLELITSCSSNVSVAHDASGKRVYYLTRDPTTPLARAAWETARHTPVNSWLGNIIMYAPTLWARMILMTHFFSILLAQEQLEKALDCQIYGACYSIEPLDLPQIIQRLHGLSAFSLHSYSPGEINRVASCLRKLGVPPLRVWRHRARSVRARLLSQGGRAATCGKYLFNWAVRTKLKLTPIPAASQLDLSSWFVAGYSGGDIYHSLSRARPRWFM

In the case of `COc1ccc2c(c1)C1CC1(C(=O)N1CC(C)(O)C1)Cn1c-2c(C2CCCCC2)c2ccc(C(=O)NS(=O)(=O)N(C)C)cc21` (stereo not shown), the IC50 (commonly the point on the concentration scale where inhibition reaches its midpoint) in test [1] was less than 20 nM. For the same compound, the EC50 (commonly the concentration needed to bring the measured effect to its halfway point) with HCV replicon cells (Hepatitis C virus) was in the range of 1 to 500 nM.

In test [1], `COc1ccc2c(c1)C1CC1(C(=O)N1CC(O)(c3ccccc3)C1)Cn1c-2c(C2CCCCC2)c2ccc(C(=O)NS(=O)(=O)N(C)C)cc21` (stereo not shown) had an IC50 of 1 to 500 nM. In addition, the EC50 in the test on HCV replicon cells (Hepatitis C virus) fell in the range of 1 to 500 nM.

`COc1ccc2c(c1)C1CC1(C(=O)N1CC(O)(c3ccc(F)cc3)C1)Cn1c-2c(C2CCCCC2)c2ccc(C(=O)NS(=O)(=O)N(C)C)cc21` (stereo not shown) returned an IC50 in test [1] of 1 to 500 nM. This compound gave an EC50 in the test on HCV replicon cells (Hepatitis C virus) of 1 to 500 nM.

In test [1], `COc1ccc2c(c1)C1CC1(C(=O)N1CC(O)(C(C)C)C1)Cn1c-2c(C2CCCCC2)c2ccc(C(=O)NS(=O)(=O)N(C)C)cc21` (stereo not shown) showed an IC50 of 1 to 500 nM. In addition, the EC50 in the test on HCV replicon cells (Hepatitis C virus) fell in the range of 1 to 500 nM.

In turn, `COc1ccc2c(c1)C1CC1(C(=O)N1CC(O)C1)Cn1c-2c(C2CCCCC2)c2ccc(C(=O)NS(=O)(=O)C3CC3)cc21` (stereo not shown) [drawing 16] had an IC50 in test [1] of 1 to 500 nM. Also, the EC50 with HCV replicon cells (Hepatitis C virus, FRET assay, read-out: EC50) was in the range of 1 to 500 nM.

For the compound `COc1ccc2c(c1)C1CC1(C(=O)N1CC(O)C1)Cn1c-2c(C2CCCCC2)c2ccc(C(=O)NS(=O)(=O)N(C)C)cc21` (stereo not shown) [drawing 17], the IC50 in test [1] was in the range of 1 to 500 nM. The compound further came in with an EC50 in the test with HCV replicon cells (Hepatitis C virus) of 1 to 500 nM.

In test [1], `COc1ccc2c(c1)C1CC1(C(=O)N1CC(O)(C3CC3)C1)Cn1c-2c(C2CCCCC2)c2ccc(C(=O)NS(=O)(=O)N(C)C)cc21` (stereo not shown) [drawing 21] gave an IC50 of 1 to 500 nM. For the same compound, in the test with HCV replicon cells (Hepatitis C virus), the EC50 was in the range of 1 to 500 nM.

`COc1ccc2c(c1)C1CC1(C(=O)N1CC(O)(C(F)(F)F)C1)Cn1c-2c(C2CCCCC2)c2ccc(C(=O)NS(=O)(=O)N(C)C)cc21` (stereo not shown) [drawing 23] had an IC50 in test [1] of 1 to 500 nM. The compound further returned an EC50 in the test on HCV replicon cells (Hepatitis C virus) of 1 to 500 nM.

`COc1ccc2c(c1)C1CC1(C(=O)N1CC(O)(C3CC3)C1)Cn1c-2c(C2CCCCC2)c2ccc(C(=O)NS(=O)(=O)N(C)C)cc21` (stereo not shown) [drawing 24]: the IC50 in test [1] was in the range of 1 to 500 nM. The EC50 with HCV replicon cells (FRET assay) was in the range of 1 to 500 nM.

`COc1ccc2c(c1)C1CC1(C(=O)N1CC(O)(C(F)(F)F)C1)Cn1c-2c(C2CCCCC2)c2ccc(C(=O)NS(=O)(=O)N(C)C)cc21` (stereo not shown) [drawing 25] yielded an IC50 in test [1] of 1 to 500 nM. This compound also returned an EC50 in the test with HCV replicon cells (FRET assay) of 1 to 500 nM.

In test [1], `COc1ccc2c(c1)C1CC1(C(=O)N1CC(O)C1)Cn1c-2c(C2CCCCC2)c2ccc(C(=O)NS(=O)(=O)C3CC3)cc21` (stereo not shown) [drawing 27] came in with an IC50 of 1 to 500 nM.

For `COc1ccc2c(c1)C1CC1(C(=O)N1CC(O)C1)Cn1c-2c(C2CCCCC2)c2ccc(C(=O)NS(=O)(=O)N(C)C)cc21` (stereo not shown) [drawing 28], in test [1], the IC50 is 1 to 500 nM.
